The text below walks through data of publication PMC11923649, “Novel C-2 Aromatic Heterocycle-Substituted Triterpenoids Inhibit Hedgehog Signaling in GLI1 Overexpression Cancer Cells” (ACS Omega, 2025).

One series relates to U2OS. Kind of series: MTS cytotoxicity assay, 72 h, U2OS. It is filed as cell-based. To be noted: Homo sapiens.
For series [1], the system named is K562 (chronic myelogenous leukemia). The series is described as follows: MTS cytotoxicity assay, 72 h, K562. Type of series: cell-based. The settings on record: Homo sapiens. In outline: (§1)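 IC50 values come from a tetrazolium (MTS) read-out at 490 nm taken after continuous 72 h exposure to a twofold dilution series from 50 down to 0.0975 μmol/L, with compound added one day after seeding.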
Background: Tetrazolium assays rely on reduction of a dye to a coloured formazan, in cell work by metabolically active cells.

Series [2] relates to nine cancer and two normal fibroblast derived cell lines. Kind of series: MTS cytotoxicity assay, whole panel of 11 cell lines. The settings on record: 72 h, statement for whole panel. Type of series: cell-based. The protocol:
Based on the preliminary results and tests of a larger library of known triterpenoids, a small set of 2-substituted lupane and 18α-oleanane derivatives was designed and synthesized. As the first step, the cytotoxic activity of the synthesized derivatives was assessed using an MTS assay following 72 h of treatment (Table 1). Selected cell lines A549 (lung adenocarcinoma) and DU-145 (prostate cancer) are both dependent on Hh signaling. In addition, K562 (chronic myelogenous leukemia) was included as a cell line sensitive to Hh inhibitors[32] and a type of hematological malignancy with active Hh signaling.[33] MRC-5 lung fibroblasts and BJ human skin fibroblasts cell lines were used to evaluate the toxicity against nontumor cells. Compounds were also tested using the standard panel of other cancer cell lines, as described in our earlier work (Table 1).[27]
The human prostate tumor-derived cell line DU145 was obtained from ATCC (American Type Culture Collection) and cultured in RPMI 1640 (Roswell Park Memorial Institute) medium supplemented with 10% (v/v) fetal bovine serum (FBS). Human prostate tumor-derived LNCaP cells were obtained from ATCC and cultured in RPMI 1640 medium supplemented with 10% FBS. […] Finally, the absorbance at 490 nm was measured using an EnVision multifunctional modular reader (PerkinElmer). The IC50 value was determined using Dotmatics software.

Series [3] relates to A549 (lung adenocarcinoma). Kind of series: MTS cytotoxicity assay, 72 h, A549. Type of series: cell-based. To be noted: Homo sapiens, A549, 72 h. In short, it runs like this: as §1
In a further series the test system is HCT 116. Kind of series: MTS cytotoxicity assay, 72 h, HCT 116. Type of series: cell-based. The settings on record: Homo sapiens, HCT-116, 72 h. In short, it runs like this: as §1
The subject of another series is HCT116 p53–/–. The series is described as follows: MTS cytotoxicity assay, 72 h, HCT116 p53–/–. Type of series: cell-based. The settings on record: Homo sapiens, HCT-116, 72 h. In short, it runs like this: as §1
A further series relates to CEM-DNR. Kind of series: MTS cytotoxicity assay, 72 h, CEM-DNR. The settings on record: Homo sapiens. Type of series: cell-based.
The next series has as its system DU-145 (prostate cancer). Kind of series: MTS cytotoxicity assay, 72 h, DU-145. It is filed as cell-based, human. To be noted: Homo sapiens, DU-145, 72 h. In outline: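 Seed cells; next day add compound (50–0.0975 μmol/L, 2-fold steps); incubate 72 h, 37 °C, 5% CO2; add MTS/PMS, 1–4 h; read A490; fit IC50.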
For the next series, the system named is CCRF-CEM. The series is described as follows: MTS cytotoxicity assay, 72 h, CCRF-CEM. It is filed as cell-based. To be noted: Table 1. In short, it runs like this:
as §1

In another series the test system is MRC-5 lung fibroblasts. The series is described as follows: MTS cytotoxicity assay, 72 h, MRC-5 fibroblasts. It is filed as cell-based, human. To be noted: Homo sapiens, MRC5, 72 h, normal fibroblasts. In short, it runs like this:
as §1

The subject of series [4] is BJ human skin fibroblasts. The series is described as follows: MTS cytotoxicity assay, 72 h, BJ fibroblasts. The settings on record: Homo sapiens, Skin fibroblast, normal fibroblasts. It is filed as cell-based. In short, it runs like this:
as §1

A further series concerns K562-TAX. The series is described as follows: MTS cytotoxicity assay, 72 h, K562-TAX. It is filed as cell-based.

The term IC50 denotes the concentration at which inhibition is half-maximal. A lower IC50 goes with higher potency.

As to `CC1(C)C(=O)C(c2ccc3cn[nH]c3c2)=C[C@@]2(C)C1CC[C@]1(C)C2CCC2C3[C@H]4OC[C@@]3(CCC4(C)C)CC[C@]21C` (stereo partly drawn) [Compound 4n, 2-(Indazol-6-yl)-19β,28-epoxyolean-1-en-3-one], the IC50 in the series on U2OS (Table 1) was 25 µM; in the series on U2OS (full Table S1), 24.5 µM; in [1] (Table 1), 23 µM; in series [1] (full Table S1), 22.5 µM; in series [3] (Table 1), 30 µM; in [3] (full Table S1), 29.5 µM. Moreover, the 50% inhibitory concentration (IC50) stood at 31 µM with HCT 116 (Table 1); 30.6 µM in the series with HCT 116 (full Table S1); 31 µM in the series with HCT116 p53–/– (Table 1); 30.6 µM in the series on HCT116 p53–/– (full Table S1); 24 µM in the series on CEM-DNR (Table 1); 24.1 µM with CEM-DNR (full Table S1). Further, the IC50 with DU-145 (prostate cancer) (Table 1) is 24 µM; with DU-145 (prostate cancer) (full Table S1), 23.9 µM; with CCRF-CEM (Homo sapiens, CCRF-CEM, 72 h, MTS), 18 µM; with MRC-5 lung fibroblasts (Table 1), 33 µM; with MRC-5 lung fibroblasts (full Table S1) it was 33.2 µM; in [4] (Table 1), 42 µM. Besides, the IC50 in [4] (full Table S1) worked out at 42.2 µM; in the series on K562-TAX (Table 1) it was 16 µM; with K562-TAX (full Table S1), 16.8 µM. Also, in [2], the “Cytotoxic activity (IC50) on these 11 cell lines” value was “weak cytotoxicity”. The “SI (selectivity index)” value in the series on CCRF-CEM (IC50 of CCRF-CEM line vs average of both fibroblasts (BJ and MRC-5)) turned out to be 2.1.
